Experiments:
[1] = system: T. gondii RH strain tachyzoites; assay: Transmission electron microscopy of intracellular tachyzoites in Vero cells; format: cell-based, Toxoplasma gondii RH strain; conditions: infected Vero cells treated with the IC50 of each compound for 24 h
Procedure: After confluence of Vero cells in four T-25 culture flasks, T. gondii RH strain tachyzoites, suspended in 5 ml of RPMI, and were added to each flasks in a ratio of 5:1 parasite-host cell (Diab and El-Bahy [2008]). Flasks were incubated for 2 h. After that, the cells were washed twice with culture media to remove extracellular parasites. The cells in culture flasks were incubated in 5 ml of culture media for 24 h at 37 °C in a 5% CO2 (Carvalho and De Melo [2010b]). […] For TEM (Jeol JSM-1400), trypsinization was followed by centrifugation at 2000g for 10 min, and the resulting pellet was fixed in buffered glutaraldehyde-phosphate 2.5% and stored at 4 °C until used (Shaw et al. [2002]). Then, the fixed specimens were washed thoroughly with Millonig phosphate buffer and post-fixed with buffered osmium tetroxide-phosphate. Following that, they were dehydrated in ascending concentrations of ethyl alcohol followed by embedding in epoxy resin. Finally, ultrathin sections were doubly stained with uranyl acetate and lead citrate trihydrate stains and examined under TEM (Winey et al. [2014]).

Vero cells = assay: Cytotoxicity test (MTT) on Vero cells; format: cell-based, African green monkey; conditions: 24 h incubation
Procedure: (§1) Vero cells were seeded at a density of 1×10^4 cells/well in 96-well plate and incubated for 24 h at 37 °C in a 5% CO2 incubator. […] A stock solution in DMSO was initially prepared then diluted 100 times with culture media to obtain the highest concentration, then it was serially diluted. Three replicates for each drug concentration were performed. Cell viability was assayed by MTT method where 20 μl of 5 mg/ml MTT (Sigma, USA) was added to each well, and the plate was incubated at 37 °C for 3 h. Then, MTT solution was removed, 100 μl DMSO was added, and the absorbance of each well was measured using a Benchmark Microplate Reader (Bio Rad). […] [2021]; Montazeri et al. [2020]). Experiments were repeated three times. Vero cell growth suppression (%) was estimated using the following equation: […]×100 using CompuSyn software (version 1) (Chou [2006]; Chou and Talaly [1977]).

T. gondii tachyzoites = assay: Effects of sulfa drugs on intracellular Toxoplasma gondii in Vero cells (MTT); format: cell-based, Toxoplasma gondii RH strain; conditions: 24 h treatment
Procedure: For this purpose, Vero cells were cultured in 96-well plates (1×10^4 cells/well) for 24 h in RPMI 1640 medium supplemented with 10% inactivated FBS at 37 °C and 5% CO2. Next, the cells were infected with T. gondii tachyzoites (parasite: cell ratio = 10:1). Four hours following the inoculation, the cells were washed twice with RPMI to remove any non-adherent parasites. […] Cell viability was assayed by MTT method. Twenty microliters of 5 mg/ml MTT (Sigma, USA) was added to each well and the plate was incubated at 37 °C for 3 h. Then, MTT solution was removed, 100 μl DMSO was added, and the absorbance of each well was measured using a Benchmark Microplate Reader (Bio Rad). The optical absorbance was measured at 570-nm wavelength. Growth inhibition (GI) was calculated as in the following equation: GI%=At-Ac/Ac×100
where At and Ac are the absorbance of treated cells and control, respectively. […] Selectivity index (SI) of the samples was calculated using the IC50 and the host-cell cytotoxicity profiles CC50 (SI = CC50/IC50) (Montazeri et al. [2020]) using CompuSyn software (version 1) (Chou [2006]; Chou and Talaly [1977]).

tachyzoites = conditions: ref Portes et al. [2018]; cited from earlier work
[2] = Cytotoxicity test (MTT) on Vero cells; format: cell-based, African green monkey; conditions: African green monkey, 24 h incubation
Procedure: as §1

Molecule	Ultrastructural alterations of intracellular tachyzoites (TEM) [1]	CC50 (Vero cells)	IC50 (T. gondii tachyzoites)	Ultrastructural alterations in tachyzoites after treatment (tachyzoites)	CC50 at 24 h [2]	IC50 (T. gondii tachyzoites; Toxoplasma gondii)
4-(4-(hydroxymethyl)-1H-1,2,3-triazol-1-yl)-N-(pyridin-2-yl)benzenesulfonamide [3e]	large PVs containing multiple vacuolated tachyzoites without nuclei or organelles	510 ± 22 nM	53.3 ± 10.5 nM	–	–	–
Nc1ccc(S(=O)(=O)Nc2ncccn2)cc1 [Sulfadiazine, sulfadiazine]	–	–	–	no significant ultrastructural alterations	1390 ± 100 nM	185 ± 18.4 nM
